Results: the supplement of paper PMC10307832

Legend:
Experiment in all cases: relative viability (nuclei count vs DMSO), 5 days (fraction); higher = more cells survive
[1] = compound: CC1(COc2ccc3c(c2)ncn3-c2ccc3cccc(N4CCC(N)CC4)c3n2)COC1 [Crenolanib] + CC1(C)CCC(c2ccc(Cl)cc2)=C(CN2CCN(c3ccc(C(=O)NS(=O)(=O)c4ccc(N[C@H](CCN5CCOCC5)CSc5ccccc5)c(S(=O)(=O)C(F)(F)F)c4)cc3)CC2)C1 [Navitoclax] (partner 0.5 µM)
Outline: (§1)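 Lung cancer cell lines, seeded in 1536-well plates, were treated the following day by pin tool with a single drug or with five library-drug doses (not always all listed) in √10 steps on top of a fixed anchor-drug dose. Cells were fixed and nuclei stained in one step after 5 days, and nuclei were counted. Relative viability is the nuclei count for treated wells divided by that for vehicle wells, reported as medians of duplicate plates.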

[2] = compound: CC1(COc2ccc3c(c2)ncn3-c2ccc3cccc(N4CCC(N)CC4)c3n2)COC1 [Crenolanib] + CS(=O)(=O)CCNCc1ccc(-c2ccc3ncnc(Nc4ccc(OCc5cccc(F)c5)c(Cl)c4)c3c2)o1 [Lapatinib] (partner 2 µM)
Outline: as §1

[3] = compound: O=C1NC(=O)[C@@H](c2cn3c4c(cccc24)CCC3)[C@@H]1c1c[nH]c2ccccc12 [Tivantinib] + CCNC(=O)c1noc(-c2cc(C(C)C)c(O)cc2O)c1-c1ccc(CN2CCOCC2)cc1 [Luminespib] (partner 0.01 µM)
Outline: as §1

[4] = compound: O=C1NC(=O)[C@@H](c2cn3c4c(cccc24)CCC3)[C@@H]1c1c[nH]c2ccccc12 [Tivantinib] + Cc1nc(Nc2ncc(C(=O)Nc3c(C)cccc3Cl)s2)cc(N2CCN(CCO)CC2)n1 [Dasatinib] (partner 0.075 µM)
Outline: as §1

| Cell Line | relative viability ([1]; first compound 0.01 µM) | relative viability ([1]; first compound 0.03162 µM) | relative viability ([1]; first compound 0.1 µM) | relative viability ([1]; first compound 0.3162 µM) | relative viability ([1]; first compound 1 µM) | relative viability ([2]; first compound 0.01 µM) | relative viability ([2]; first compound 0.03162 µM) | relative viability ([2]; first compound 0.1 µM) | relative viability ([2]; first compound 0.3162 µM) | relative viability ([2]; first compound 1 µM) | relative viability ([3]; first compound 0.03162 µM) | relative viability ([3]; first compound 0.1 µM) | relative viability ([3]; first compound 0.3162 µM) | relative viability ([4]; first compound 0.01 µM) | relative viability ([4]; first compound 0.03162 µM) | relative viability ([4]; first compound 0.1 µM) | relative viability ([4]; first compound 0.3162 µM) | relative viability ([3]; first compound 0.01 µM) |
| --- | --- | --- | --- | --- | --- | --- | --- | --- | --- | --- | --- | --- | --- | --- | --- | --- | --- | --- |
| PC-14 | 1.08 | 1.01 | 0.986 | 1.11 | 0.988 | 0.311 | 0.294 | 0.335 | 0.335 | 0.324 | 0.152 | 0.152 | 0.15 | 0.29 | 0.27 | 0.234 | 0.0998 | – |
| NCI-H1792 | 0.656 | 0.408 | 0.579 | 0.673 | 0.642 | 0.977 | 0.851 | 0.835 | 1.09 | 0.874 | 0.323 | 0.338 | 0.391 | 0.902 | 0.714 | 0.675 | 0.481 | 0.479 |
| HCC-827 | 0.976 | 1.03 | 0.978 | 1.07 | 0.995 | 0.163 | 0.188 | 0.16 | 0.217 | 0.191 | 0.661 | 0.699 | 0.378 | 0.237 | 0.295 | 0.375 | 0.131 | 0.472 |
| LC-2-ad | 0.492 | 0.48 | 0.367 | 0.647 | 0.54 | 1 | 0.922 | 0.982 | 1.05 | 0.992 | 1.17 | 0.94 | 0.906 | 0.554 | 0.527 | 0.641 | 0.477 | 0.995 |
| NCI-H322M | 1.12 | 1.14 | 1.19 | 1.28 | 1.38 | 0.613 | 0.64 | 0.543 | 0.567 | 0.587 | 0.874 | 0.737 | – | 0.25 | 0.234 | 0.273 | – | 0.977 |
| EPLC-272H | – | 1.25 | 0.988 | 1.17 | 1.08 | – | 0.877 | 0.722 | 0.977 | 1.02 | 0.23 | 0.431 | 0.19 | 0.409 | 0.343 | 0.293 | 0.176 | 0.374 |
| COR-L23 | 1.06 | 1.07 | 0.922 | 1.12 | 1.04 | 0.952 | 1.13 | 0.836 | 0.931 | 0.987 | 0.685 | 0.661 | 0.757 | 0.498 | 0.542 | 0.48 | 0.5 | 0.625 |
| NCI-H2126 | 0.891 | 0.888 | 0.831 | 0.916 | 0.934 | 0.796 | 0.742 | 0.745 | 0.775 | 0.71 | 0.886 | 0.884 | 0.745 | 0.583 | 0.676 | 0.594 | 0.565 | 0.978 |
| NCI-H1975 | 1.18 | 1.02 | 0.954 | 1.17 | 1.24 | 0.844 | 0.968 | 0.774 | 0.891 | 0.702 | 0.307 | 0.17 | 0.218 | 0.357 | 0.372 | 0.276 | 0.281 | 0.197 |
